According to patent US9260418B2, “Pyranyl aryl methyl benzoquinolinone M1 receptor positive allosteric modulators” (Merck Sharp & Dohme Corp., priority 2009, dated 2016):
pEC50: −log10 of the molar value.

Target: T1, acetylcholine muscarinic M1 receptor (Homo sapiens, UniProt P11229)
T1 construct: expressed in transfected cells; host or cells: CHOnfat cells (CHO), under Geneticin selection; b382 calls them CHOK1/hM1
T1 sequence (P11229 1-460): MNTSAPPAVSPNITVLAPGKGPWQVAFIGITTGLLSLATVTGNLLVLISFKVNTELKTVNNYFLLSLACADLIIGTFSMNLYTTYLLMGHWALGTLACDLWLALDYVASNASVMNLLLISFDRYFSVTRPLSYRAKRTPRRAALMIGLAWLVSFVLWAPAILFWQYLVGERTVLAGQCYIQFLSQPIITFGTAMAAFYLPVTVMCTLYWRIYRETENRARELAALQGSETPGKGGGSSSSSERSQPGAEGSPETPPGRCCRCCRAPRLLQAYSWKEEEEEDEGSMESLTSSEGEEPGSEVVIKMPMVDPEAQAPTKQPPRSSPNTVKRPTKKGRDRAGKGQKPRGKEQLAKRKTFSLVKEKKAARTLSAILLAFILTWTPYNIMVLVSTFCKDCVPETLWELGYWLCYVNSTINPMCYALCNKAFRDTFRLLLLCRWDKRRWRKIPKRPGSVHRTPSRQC
Assay: muscarinic FLIPR intracellular calcium assay, potentiation of EC20 acetylcholine in CHOnfat/hM1 cells
Format: cell-based
Settings: inflection point calculated from FLIPR values, 4 min preincubation, then EC20 acetylcholine (3 nM final), read-out: IP Value
Experimental: The assay studies the effect of one or several concentrations of test compounds on basal or acetylcholine-stimulated Ca^2+ levels using FLIPR.
Compounds are prepared and subjected to a preincubation period of 4 min. Thereafter, a single EC20 concentration of acetylcholine is added to each well (3 nM final). The intracellular Ca^2+ level of each sample is measured and compared to an acetylcholine control to determine any modulatory activity.
Cells: CHOnfat/hM1, hM2, hM3 or hM4 cells are plated 24 hr before the assay at a density of 18,000 cells/well (100 μL) in a 384 well plate. CHOnfat/hM1 and CHOnfat/hM3 Growth Medium: 90% DMEM (Hi Glucose); 10% HI FBS; 2 mM L-glutamine; 0.1 mM NEAA; Pen-Strep; and 1 mg/ml Geneticin, are added. For M2Gqi5CHOnfat and M4Gqi5CHOnfat cells, an additional 600 ug/ml hygromycin is added.
Equipment: 384 well plate, 120 μL addition plate; 96-well Whatman 2 ml Uniplate Incubator, 37° C., 5% CO2; Skatron EMBLA-384 Plate Washer; Multimek Pipetting System; Genesis Freedom 200 System; Mosquito System; Temo Nanolitre Pipetting System; and FLIPR^384 Fluorometric Imaging Plate Reader System are used.
Buffers. Assay Buffer: Hanks Balanced Salt Solution, with 20 mM Hepes, 2.5 mM Probenecid (Sigma P-8761) first dissolved in 1 N NaOH, 1% Bovine Serum Albumin (Sigma A-9647). Dye Loading Buffer: Assay Buffer plus 1% Fetal Bovine Serum and Fluo-4AM/Pluronic Acid Mixture. 2 mM Fluo-4AM ester stock in DMSO (Molecular Probes F-14202) Concentration of 2 μM in buffer for a final concentration of 1 μM in Assay. 20% Pluronic Acid Solution stock, with concentration of 0.04% in Buffer, 0.02% in Assay.
65 μL of 2 mM Fluo-4AM are mixed with 130 μL of 20% Pluronic Acid. The resulting solution and 650 μL FBS is added to the assay buffer for a total volume of 65 mL. Positive Controls: 4-Br-A23187: 10 mM in DMSO; final concentration 10 μM. Acetylcholine: 10 mM in water, working stock at both 20 μM and 30 μM in assay buffer, final concentration of 10 μM. This is used to check the maximum stimulation of the CHOK1/hM1 cells. 20 μM (2×) acetylcholine is added in the preincubation part of the assay, and the 30 μM (3×) stock is added in the second part. (EC20)Acetylcholine: 10 mM in water, working stock of 9 nM (3×), and final concentration in assay is 3 nM. This is used after the preincubation with test compounds. Addition of the EC20 Acetylcholine to each well with a test compound will ascertain any modulator activity. 24 wells contain 3 nM Acetylcholine alone as a control.
Screening Plate: Compounds are titrated in 96-well plates (columns 2-11), 100% DMSO, started at a concentration of 15 mM (150× stock concentration), and 3-fold serial dilutions using Genesis Freedom200 System. Four 96-well plates are combined into a 384-well plate using Mosquito Nanolitre Pipetting System by transferring 1 μl of serial diluted compounds to each well, and 1 mM acetylcholine (100× stock concentration) were added as a control. Using Temo, 49 μl assay buffer is added to each well of the 384-well plate right before assay.
In a 96-well Whatman 2 ml Uniplate, 9 nM Acetylcholine (3×) is pipetted into wells corresponding to the screening compounds, and into control wells. The 30 μM acetylcholine control (3×) is added into control wells, and the 3× agonist plate is transferred into a 384 well plate.
Cells are washed three times with 100 μL of buffer, leaving 30 μL of buffer in each well. Using Multimek, 30 μL of Dye Loading Buffer is added into each well and incubated at 37° C., 5% CO2 for up to one hr.
After 60 min, the cells are washed three times with 100 μL of buffer, leaving 30 μL of buffer in each well. The cell plate, screening plate, and agonist addition plates are placed on the platform in the FLIPR and the door closed. A signal test to check background fluorescence and basal fluorescence signal is performed. Laser intensity is adjusted if necessary. […]

Point of comparison: `COc1ccc(Cc2cc3c(=O)n([C@H]4CCOC[C@@H]4O)cnc3c3ccccc23)cn1` [Example 7, 3-[(3R,4S)-3-Hydroxytetrahydro-2H-pyran-4-yl]-6-[(6-methoxypyridin-3-yl)methyl]benzo[h]quinazolin-4(3H)-one], pEC50 7.77. Against it:
- O=c1c2cc(Cc3ccc(Cl)nc3)c3ccccc3c2ncn1[C@H]1CCNC[C@@H]1O (racemic) [Example 35, rac-6-[(6-Chloropyridin-3-yl)methyl]-3-[(3R,4R)-3-hydroxypiperidin-4-yl]benzo[h]quinazolin-4(3)H-one] — 0.50 log units lower, 7.27
- CC(=O)N1CC[C@H](n2cnc3c(cc(Cc4ccc(Cl)nc4)c4ccccc43)c2=O)[C@@H](O)C1 (racemic) [Example 36, rac-3-[(3R,4R)-1-acetyl-3-hydroxypiperidin-4-yl]-6-[(6-chloropyridin-3-yl)methyl]benzo[h]quinazolin-4(3H)-one] — 0.85 log units lower, 6.92
- O=c1c2cc(Cc3ccc(Cl)nc3)c3ccccc3c2ncn1[C@H]1CCOC[C@@H]1O [Example 1, 6-[(6-Chloropyridin-3-yl)methyl]-3-[(3R,4S)-3-hydroxytetrahydro-2H-pyran-4-yl]benzo[h]quinazolin-4(3H)-one] — within 0.2 log units, 7.89
- CSc1ccc(Cc2cc3c(=O)n([C@H]4CCOC[C@@H]4O)cnc3c3ccccc23)cn1 [Example 2, 3-[(3R,4S)-3-Hydroxytetrahydro-2H-pyran-4-yl]-6-{[(6-methylthio)pyridin-3-yl)methyl]benzo[h]quinazolin-4(3H)-one] — within 0.2 log units, 7.85
- Cc1ccc(Cc2cc3c(=O)n([C@H]4CCOC[C@@H]4O)cnc3c3ccccc23)cn1 [Example 3, 3-[(3R,4S)-3-Hydroxytetrahydro-2H-pyran-4-yl]-6-[(6-methylpyridin-3-yl)methyl]benzo[h]quinazolin-4(3H)-one] — within 0.2 log units, 7.82
- Cn1cc(-c2ccc(Cc3cc4c(=O)n([C@H]5CCOC[C@@H]5O)cnc4c4ccccc34)cn2)cn1 [Example 4, 3-[(3R,4S)-3-Hydroxytetrahydro-2H-pyran-4-yl]-6-{[6-(1-methyl-1H-pyrazol-4-yl)pyridine-3-yl]methyl}benzo[h]quinazolin-4(3H)-one] — 0.83 log units higher, 8.60
- O=c1c2cc(Cc3ccc(-n4cccn4)nc3)c3ccccc3c2ncn1[C@H]1CCOC[C@@H]1O [Example 5, 3-[(3R,4S)-3-Hydroxytetrahydro-2H-pyran-4-yl]-6-{[6-(1H-pyrazol-1-yl)pyridine-3-yl]methyl}benzo[h]quinazolin-4(3H)-one] — within 0.2 log units, 7.82
- O=c1c2cc(Cc3cccnc3)c3ccccc3c2ncn1[C@H]1CCOC[C@@H]1O [Example 6] — within 0.2 log units, 7.64
- N#Cc1ccc(Cc2cc3c(=O)n([C@H]4CCOC[C@@H]4O)cnc3c3ccccc23)cn1 [Example 8, 5-({3-[(3R,4S)-3-Hydroxytetrahydro-2H-pyran-4-yl]-4-oxo-3,4-dihydrobenzo[h]quinazolin-6-yl}methyl)pyridine-2-carbonitrile] — 0.26 log units lower, 7.51
- CCc1ccc(Cc2cc3c(=O)n([C@H]4CCOC[C@@H]4O)cnc3c3ccccc23)cn1 [Example 9, 6-[(6-Ethylpyridin-3-yl)methyl]-3-[(3R,4S)-3-hydroxytetrahydro-2H-pyran-4-yl]benzo[h]quinazolin-4(3H)-one] — within 0.2 log units, 7.80
- CC(=O)c1ccc(Cc2cc3c(=O)n([C@H]4CCOC[C@@H]4O)cnc3c3ccccc23)cn1 [Example 10, 6-[(6-Acetylpyridin-3-yl)methyl]-3-[(3R,4S)-3-hydroxytetrahydro-2H-pyran-4-yl]benzo[h]quinazolin-4(3H)-one] — 0.25 log units lower, 7.52
- CC(C)(O)c1ccc(Cc2cc3c(=O)n([C@H]4CCOC[C@@H]4O)cnc3c3ccccc23)cn1 [Example 11, 6-{[6-(1-Hydroxy-1-methylethyl)pyridine-3-yl]methyl}-3-[(3R,4S)-3-hydroxytetrahydro-2H-pyran-4-yl]benzo[h]quinazolin-4(3H)-one] — 0.65 log units lower, 7.12
- O=c1c2cc(Cc3ccc(N4CCOCC4)cc3)c3ccccc3c2ncn1[C@H]1CCOC[C@@H]1O [Example 12, 3-[(3R,4S)-3-Hydroxytetrahydro-2H-pyran-4-yl]-6-(4-morpholin-4-ylbenzyl)benzo[h]quinazolin-4(3H)-one] — within 0.2 log units, 7.68
- O=c1c2cc(Cc3ccc(-c4cscn4)nc3)c3ccccc3c2ncn1[C@H]1CCOC[C@@H]1O [Example 13, 3-[(3R,4S)-3-Hydroxytetrahydro-2H-pyran-4-yl]-6-{[6-(1,3-thiazol-4-yl)pyridine-3-yl]methyl}benzo[h]quinazolin-4(3H)-one] — 0.47 log units higher, 8.24
- O=c1c2cc(Cc3ccc(Cl)[n+]([O-])c3)c3ccccc3c2ncn1[C@H]1CCOC[C@@H]1O [Example 14, 6-[(6-Chloro-1-oxidopyridin-3-yl)methyl]-3-[(3R,4S)-3-hydroxytetrahydro-2H-pyran-4-yl]benzo[h]quinazolin-4(3H)-one] — 0.54 log units lower, 7.23
- O=c1c2cc(Cc3ccnc(Cl)c3)c3ccccc3c2ncn1[C@H]1CCOC[C@@H]1O [Example 15, 6-[(2-Chloropyridin-4-yl)methyl]-3-[(3R,4S)-3-hydroxytetrahydro-2H-pyran-4-yl]benzo[h]quinazolin-4(3H)-one] — within 0.2 log units, 7.92
- CS(=O)(=O)c1ccc(Cc2cc3c(=O)n([C@H]4CCOC[C@@H]4O)cnc3c3ccccc23)cn1 [Example 16, 3-[(3R,4S)-3-Hydroxytetrahydro-2H-pyran-4-yl]-6-{[6-(methylsulfonyl)pyridine-3-yl]methyl}benzo[h]quinazolin-4(3H)-one] — 0.49 log units lower, 7.28
- C[S+]([O-])c1ccc(Cc2cc3c(=O)n([C@H]4CCOC[C@@H]4O)cnc3c3ccccc23)cn1 (stereo partly drawn) [Example 17, 3-[(3R,4S)-3-Hydroxytetrahydro-2H-pyran-4-yl]-6-{[6-(methylsulfinyl)pyridine-3-yl]methyl}benzo[h]quinazolin-4(3H)-one] — 0.72 log units lower, 7.05
- O=C(O)c1ccc(Cc2cc3c(=O)n([C@H]4CCOC[C@@H]4O)cnc3c3ccccc23)cn1 [Example 18, 5-({3-[(3R,4S)-3-Hydroxytetrahydro-2H-pyran-4-yl]4-oxo-3,4-dihydrobenzo[h]quinazolin-6-yl}methyl)pyridine-2-carboxylic acid] — 0.86 log units lower, 6.91
- CN(C)C(=O)c1ccc(Cc2cc3c(=O)n([C@H]4CCOC[C@@H]4O)cnc3c3ccccc23)cn1 [Example 19, 5-({3-[(3R,4S)-3-Hydroxytetrahydro-2H-pyran-4-yl]-4-oxo-3,4-dihydrobenzo[h]quinazolin-6-yl}methyl)-N,N-dimethylpyridine-2-carboxamide] — 1.27 log units lower, 6.50
